From ChEMBL document CHEMBL1909046, “DrugMatrix in vitro pharmacology data”

Experiments:
Melanocortin receptor 4 = Melanocortin receptor 4 (Homo sapiens, UniProt P32245); assay type: cell membranes, Membrane; details: hek293; note: in other assays of this panel Not Active means under 50% inhibition at 10 µM
[1] = target: T1, Muscarinic acetylcholine receptor M5 (Homo sapiens, UniProt P08912); assay type: cell membranes, CHO-K1, Membrane; details: cho-k1; note: in other assays of this panel Not Active means under 50% inhibition at 10 µM
T1 sequence (P08912 whole entry): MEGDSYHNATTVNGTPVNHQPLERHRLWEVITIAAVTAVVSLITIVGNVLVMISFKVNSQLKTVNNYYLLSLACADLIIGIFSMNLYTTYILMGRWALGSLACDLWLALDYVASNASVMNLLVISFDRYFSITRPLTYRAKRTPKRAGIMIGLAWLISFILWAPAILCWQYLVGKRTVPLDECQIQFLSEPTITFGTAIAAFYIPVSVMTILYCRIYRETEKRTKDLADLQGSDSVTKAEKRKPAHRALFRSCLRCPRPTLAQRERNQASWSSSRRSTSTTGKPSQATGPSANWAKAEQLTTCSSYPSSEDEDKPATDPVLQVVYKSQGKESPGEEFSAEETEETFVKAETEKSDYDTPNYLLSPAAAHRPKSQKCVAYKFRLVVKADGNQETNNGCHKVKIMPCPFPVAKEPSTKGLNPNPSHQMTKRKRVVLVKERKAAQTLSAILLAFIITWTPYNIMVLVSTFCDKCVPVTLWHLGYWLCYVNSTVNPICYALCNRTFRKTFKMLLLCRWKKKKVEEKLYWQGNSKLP

[2] = DRUGMATRIX: Interleukin IL-1 radioligand binding (ligand: [125I] interleukin 1beta); assay type: cell membranes, Membrane; details: nih3t3; Not Active = under 50% inhibition at 10 µM
Cytochrome P450 2C19 = Cytochrome P450 2C19 (Homo sapiens, UniProt P33261); details: bti-tn-5b1-4; note: in other assays of this panel Not Active means under 50% inhibition at 10 µM
Chain of Cytochrome P450 2C19 (P33261 whole entry): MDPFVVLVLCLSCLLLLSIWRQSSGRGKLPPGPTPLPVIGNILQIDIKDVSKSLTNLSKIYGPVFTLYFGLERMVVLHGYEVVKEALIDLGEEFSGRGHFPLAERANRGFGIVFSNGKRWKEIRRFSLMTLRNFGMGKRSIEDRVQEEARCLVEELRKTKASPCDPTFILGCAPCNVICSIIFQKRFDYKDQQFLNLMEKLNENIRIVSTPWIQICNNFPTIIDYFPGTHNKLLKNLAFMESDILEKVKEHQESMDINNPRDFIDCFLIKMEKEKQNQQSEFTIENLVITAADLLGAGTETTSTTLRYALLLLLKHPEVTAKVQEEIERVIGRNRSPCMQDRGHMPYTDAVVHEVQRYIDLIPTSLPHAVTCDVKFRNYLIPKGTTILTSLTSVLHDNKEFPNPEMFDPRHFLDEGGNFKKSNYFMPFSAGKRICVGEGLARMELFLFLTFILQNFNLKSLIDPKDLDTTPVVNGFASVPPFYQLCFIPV

[3] = target: T2, Muscarinic acetylcholine receptor M4 (Homo sapiens, UniProt P08173); assay type: cell membranes, CHO-K1, Membrane; details: cho-k1; note: in other assays of this panel Not Active means under 50% inhibition at 10 µM
T2 sequence (P08173 whole entry): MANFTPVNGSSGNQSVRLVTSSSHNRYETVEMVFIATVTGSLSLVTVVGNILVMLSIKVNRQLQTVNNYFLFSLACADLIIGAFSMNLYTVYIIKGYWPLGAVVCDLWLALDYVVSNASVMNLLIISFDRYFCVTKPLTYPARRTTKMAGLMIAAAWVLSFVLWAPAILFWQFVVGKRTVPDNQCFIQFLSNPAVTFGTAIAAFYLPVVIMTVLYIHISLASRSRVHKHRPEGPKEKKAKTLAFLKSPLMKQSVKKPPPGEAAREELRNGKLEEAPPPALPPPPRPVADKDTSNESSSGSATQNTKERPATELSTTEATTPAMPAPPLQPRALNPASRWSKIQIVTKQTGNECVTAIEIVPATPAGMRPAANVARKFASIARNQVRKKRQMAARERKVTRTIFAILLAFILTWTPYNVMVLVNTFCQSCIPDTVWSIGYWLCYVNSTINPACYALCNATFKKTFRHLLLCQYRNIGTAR

Melanocortin receptor 5 = Melanocortin receptor 5 (Homo sapiens, UniProt P33032); assay type: cell membranes, HEK293, Membrane; details: hek293; note: in other assays of this panel Not Active means under 50% inhibition at 10 µM
Chain of Melanocortin receptor 5 (P33032 whole entry): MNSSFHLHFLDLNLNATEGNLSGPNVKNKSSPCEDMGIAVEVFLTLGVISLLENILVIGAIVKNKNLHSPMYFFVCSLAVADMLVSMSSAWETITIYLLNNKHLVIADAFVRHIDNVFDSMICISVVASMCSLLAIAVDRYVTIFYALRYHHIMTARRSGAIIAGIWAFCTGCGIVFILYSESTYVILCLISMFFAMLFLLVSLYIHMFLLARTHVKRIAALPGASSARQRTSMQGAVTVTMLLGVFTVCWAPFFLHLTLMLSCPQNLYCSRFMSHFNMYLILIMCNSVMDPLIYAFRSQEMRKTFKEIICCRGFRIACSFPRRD

[4] = target: Sodium-dependent noradrenaline transporter (Homo sapiens, UniProt P23975); assay: DRUGMATRIX: Norepinephrine Transporter radioligand binding (ligand: [125I] RTI-55); assay type: cell membranes, MDCK, Membrane; details: mdck; Not Active = under 50% inhibition at 10 µM
Chain of Sodium-dependent noradrenaline transporter (P23975 whole entry): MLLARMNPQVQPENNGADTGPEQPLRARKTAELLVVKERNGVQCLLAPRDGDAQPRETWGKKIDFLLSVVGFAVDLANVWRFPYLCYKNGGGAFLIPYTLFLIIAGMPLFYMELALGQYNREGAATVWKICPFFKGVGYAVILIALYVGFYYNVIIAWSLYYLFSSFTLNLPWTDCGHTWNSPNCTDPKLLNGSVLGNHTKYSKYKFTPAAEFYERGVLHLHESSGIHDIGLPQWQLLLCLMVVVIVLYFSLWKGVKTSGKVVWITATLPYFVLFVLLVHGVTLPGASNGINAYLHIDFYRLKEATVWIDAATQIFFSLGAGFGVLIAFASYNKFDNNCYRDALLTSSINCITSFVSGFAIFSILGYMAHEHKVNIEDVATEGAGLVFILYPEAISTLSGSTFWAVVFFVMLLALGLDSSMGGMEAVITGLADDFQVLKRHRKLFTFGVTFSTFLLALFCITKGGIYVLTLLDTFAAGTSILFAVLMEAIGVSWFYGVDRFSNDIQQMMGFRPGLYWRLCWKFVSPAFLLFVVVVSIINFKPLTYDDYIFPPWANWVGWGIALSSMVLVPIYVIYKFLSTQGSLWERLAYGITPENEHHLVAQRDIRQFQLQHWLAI

Interstitial collagenase = target: T3, Interstitial collagenase (Homo sapiens, UniProt P03956); assay type: tissue-based, Rheumatoid synovial fibroblasts
T3 sequence (P03956 whole entry): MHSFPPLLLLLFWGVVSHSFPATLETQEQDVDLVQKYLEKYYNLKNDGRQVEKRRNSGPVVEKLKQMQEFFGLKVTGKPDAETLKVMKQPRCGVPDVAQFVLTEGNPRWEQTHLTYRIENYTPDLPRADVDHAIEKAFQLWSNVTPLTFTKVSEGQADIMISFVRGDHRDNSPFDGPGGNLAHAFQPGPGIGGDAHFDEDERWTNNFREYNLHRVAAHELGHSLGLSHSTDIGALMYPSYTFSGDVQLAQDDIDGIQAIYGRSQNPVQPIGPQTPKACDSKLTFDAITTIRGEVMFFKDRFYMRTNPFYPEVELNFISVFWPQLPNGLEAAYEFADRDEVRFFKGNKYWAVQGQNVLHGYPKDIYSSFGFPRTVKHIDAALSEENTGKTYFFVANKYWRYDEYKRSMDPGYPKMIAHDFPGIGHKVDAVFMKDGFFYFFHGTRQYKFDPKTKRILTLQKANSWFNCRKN

[5] = target: Beta-2 adrenergic receptor (Homo sapiens, UniProt P07550); assay: DRUGMATRIX: Adrenergic beta2 radioligand binding (ligand: [3H] CGP-12177); assay type: cell membranes, Membrane; details: cho; Not Active = under 50% inhibition at 10 µM
Chain of Beta-2 adrenergic receptor (P07550 whole entry): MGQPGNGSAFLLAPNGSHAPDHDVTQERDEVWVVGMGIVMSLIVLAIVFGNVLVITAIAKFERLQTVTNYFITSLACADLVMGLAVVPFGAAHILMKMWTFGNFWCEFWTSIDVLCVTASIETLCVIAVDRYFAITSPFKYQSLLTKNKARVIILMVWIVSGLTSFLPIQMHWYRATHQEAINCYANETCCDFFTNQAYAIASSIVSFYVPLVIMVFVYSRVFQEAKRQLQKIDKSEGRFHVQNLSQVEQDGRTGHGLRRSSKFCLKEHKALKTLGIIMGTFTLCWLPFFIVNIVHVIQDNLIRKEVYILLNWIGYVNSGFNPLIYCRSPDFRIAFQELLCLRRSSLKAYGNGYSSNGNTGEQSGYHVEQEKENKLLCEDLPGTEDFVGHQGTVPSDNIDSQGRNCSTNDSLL

[6] = target: Platelet-activating factor receptor (Homo sapiens, UniProt P25105); assay: biochemical; assay type: tissue-based; details: platelet; note: in other assays of this panel Not Active means under 50% inhibition at 10 µM
Chain of Platelet-activating factor receptor (P25105 whole entry): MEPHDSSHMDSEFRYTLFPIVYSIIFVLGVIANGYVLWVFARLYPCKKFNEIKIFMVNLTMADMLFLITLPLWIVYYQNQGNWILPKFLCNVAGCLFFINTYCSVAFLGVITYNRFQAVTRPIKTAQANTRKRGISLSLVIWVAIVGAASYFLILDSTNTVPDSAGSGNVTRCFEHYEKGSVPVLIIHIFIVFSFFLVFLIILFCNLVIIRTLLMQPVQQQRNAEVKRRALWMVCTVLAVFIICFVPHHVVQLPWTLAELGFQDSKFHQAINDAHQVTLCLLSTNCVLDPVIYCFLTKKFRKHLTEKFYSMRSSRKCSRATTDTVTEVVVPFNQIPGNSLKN

[7] = target: 5-hydroxytryptamine receptor 1B (Rattus norvegicus, UniProt P28564); assay type: cell membranes, Wistar, Cerebral cortex, Membrane; note: in other assays of this panel Not Active means under 50% inhibition at 10 µM
Chain of 5-hydroxytryptamine receptor 1B (P28564 whole entry): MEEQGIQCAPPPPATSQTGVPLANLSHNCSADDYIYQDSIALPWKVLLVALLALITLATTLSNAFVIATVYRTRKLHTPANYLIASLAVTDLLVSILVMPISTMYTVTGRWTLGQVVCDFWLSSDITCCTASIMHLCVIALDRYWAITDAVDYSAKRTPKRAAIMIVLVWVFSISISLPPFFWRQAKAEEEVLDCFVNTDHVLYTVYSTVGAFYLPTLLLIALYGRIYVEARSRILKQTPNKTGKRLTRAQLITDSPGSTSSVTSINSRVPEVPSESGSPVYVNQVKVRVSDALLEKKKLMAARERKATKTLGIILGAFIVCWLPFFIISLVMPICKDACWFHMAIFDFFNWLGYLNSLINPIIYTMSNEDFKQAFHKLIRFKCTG

[8] = DRUGMATRIX: Sodium/nucleoside co-transporter radioligand binding (ligand: nitrobenzylthioinosine); assay type: cell membranes, Cavia porcellus, Dunkin-Hartley, Cerebral cortex, Membrane; details: Not Active = under 50% inhibition at 10 µM
[9] = target: T4, Neuropeptide Y receptor type 2 (Homo sapiens, UniProt P49146); assay type: cell membranes, Membrane; details: kan-ts; note: in other assays of this panel Not Active means under 50% inhibition at 10 µM
T4 sequence (P49146 whole entry): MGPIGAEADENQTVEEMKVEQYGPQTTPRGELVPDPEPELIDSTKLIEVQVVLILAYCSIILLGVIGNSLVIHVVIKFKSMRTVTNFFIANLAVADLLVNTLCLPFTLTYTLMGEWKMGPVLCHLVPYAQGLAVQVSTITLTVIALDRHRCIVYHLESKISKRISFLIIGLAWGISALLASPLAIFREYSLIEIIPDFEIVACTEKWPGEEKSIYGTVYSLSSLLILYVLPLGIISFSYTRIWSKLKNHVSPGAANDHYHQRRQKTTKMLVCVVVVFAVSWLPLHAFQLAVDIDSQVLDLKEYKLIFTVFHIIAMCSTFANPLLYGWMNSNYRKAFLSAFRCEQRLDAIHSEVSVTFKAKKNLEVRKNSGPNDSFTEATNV

Chain of Melanocortin receptor 4 (P32245 whole entry): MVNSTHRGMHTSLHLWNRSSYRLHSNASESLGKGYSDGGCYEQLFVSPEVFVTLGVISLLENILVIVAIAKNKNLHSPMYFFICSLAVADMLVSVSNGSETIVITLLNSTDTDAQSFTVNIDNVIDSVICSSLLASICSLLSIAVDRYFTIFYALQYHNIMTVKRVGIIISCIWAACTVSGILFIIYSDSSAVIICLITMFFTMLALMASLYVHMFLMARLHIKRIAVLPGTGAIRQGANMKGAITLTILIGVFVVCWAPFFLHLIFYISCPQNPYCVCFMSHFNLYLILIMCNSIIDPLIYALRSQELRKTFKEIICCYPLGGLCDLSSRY

COC(=O)[C@H](c1ccccc1Cl)N1CCc2sccc2C1 [CLOPIDOGREL]
Not Active: IC50 (Melanocortin receptor 4) | IC50 [1] | IC50 [2] | Ki [2] | IC50 (Cytochrome P450 2C19) | Ki (Cytochrome P450 2C19) | IC50 [3] | IC50 (Melanocortin receptor 5) | IC50 [4] | IC50 (Interstitial collagenase) | IC50 [5] | IC50 [6] | IC50 [7] | IC50 [8] | Ki [8] | IC50 [9]

C[C@]12CCC(=O)C=C1CC[C@@H]1[C@@H]2C(=O)C[C@@]2(C)[C@H]1CC[C@]2(O)C(=O)CO [CORTISONE]
Not Active: IC50 (Melanocortin receptor 4) | IC50 [1] | IC50 [2] | Ki [2] | IC50 (Cytochrome P450 2C19) | Ki (Cytochrome P450 2C19) | IC50 [3] | IC50 (Melanocortin receptor 5) | IC50 [4] | IC50 (Interstitial collagenase) | IC50 [5] | IC50 [6] | IC50 [7] | IC50 [8] | Ki [8] | IC50 [9]

Cc1ccccc1N1CCN(CCc2nnc3n2CCCC3)CC1 [DAPIPRAZOLE]
Not Active: IC50 (Melanocortin receptor 4) | IC50 [1] | IC50 [2] | Ki [2] | IC50 (Cytochrome P450 2C19) | Ki (Cytochrome P450 2C19) | IC50 [3] | IC50 (Melanocortin receptor 5) | IC50 [4] | IC50 (Interstitial collagenase) | IC50 [5] | IC50 [6] | IC50 [7] | IC50 [8] | Ki [8] | IC50 [9]

CC1=Nc2ccc(Cl)cc2S(=O)(=O)N1 [DIAZOXIDE]
Not Active: IC50 (Melanocortin receptor 4) | IC50 [1] | IC50 [2] | Ki [2] | IC50 (Cytochrome P450 2C19) | Ki (Cytochrome P450 2C19) | IC50 [3] | IC50 (Melanocortin receptor 5) | IC50 [4] | IC50 (Interstitial collagenase) | IC50 [5] | IC50 [6] | IC50 [7] | IC50 [8] | Ki [8] | IC50 [9]

CC(=O)OCC(=O)[C@@]1(OC(C)=O)[C@@H](C)C[C@H]2[C@@H]3C[C@H](F)C4=CC(=O)C=C[C@]4(C)[C@@]3(F)[C@@H](O)C[C@@]21C [DIFLORASONE DIACETATE]
Not Active: IC50 (Melanocortin receptor 4) | IC50 [1] | IC50 [2] | Ki [2] | IC50 (Cytochrome P450 2C19) | Ki (Cytochrome P450 2C19) | IC50 [3] | IC50 (Melanocortin receptor 5) | IC50 [4] | IC50 (Interstitial collagenase) | IC50 [5] | IC50 [6] | IC50 [7] | IC50 [8] | Ki [8] | IC50 [9]

COc1ccc([C@@H]2Sc3ccccc3N(CCN(C)C)C(=O)[C@@H]2OC(C)=O)cc1 [DILTIAZEM]
Not Active: IC50 (Melanocortin receptor 4) | IC50 [1] | IC50 [2] | Ki [2] | IC50 (Cytochrome P450 2C19) | Ki (Cytochrome P450 2C19) | IC50 [3] | IC50 (Melanocortin receptor 5) | IC50 [4] | IC50 (Interstitial collagenase) | IC50 [5] | IC50 [6] | IC50 [7] | IC50 [8] | Ki [8] | IC50 [9]

CCc1ccc(C(=O)C(C)CN2CCCCC2)cc1 (centres undefined) [EPERISONE]
Not Active: IC50 (Melanocortin receptor 4) | IC50 [1] | IC50 [2] | Ki [2] | IC50 (Cytochrome P450 2C19) | Ki (Cytochrome P450 2C19) | IC50 [3] | IC50 (Melanocortin receptor 5) | IC50 [4] | IC50 (Interstitial collagenase) | IC50 [5] | IC50 [6] | IC50 [7] | IC50 [8] | Ki [8] | IC50 [9]

C=C1CC[C@H](O)C/C1=C/C=C1\CCC[C@]2(C)[C@@H]([C@H](C)/C=C/[C@H](C)C(C)C)CC[C@@H]12 [ERGOCALCIFEROL]
Not Active: IC50 (Melanocortin receptor 4) | IC50 [1] | IC50 [2] | Ki [2] | IC50 (Cytochrome P450 2C19) | Ki (Cytochrome P450 2C19) | IC50 [3] | IC50 (Melanocortin receptor 5) | IC50 [4] | IC50 (Interstitial collagenase) | IC50 [5] | IC50 [6] | IC50 [7] | IC50 [8] | Ki [8] | IC50 [9]

CCc1cccc2c3c([nH]c12)C(CC)(CC(=O)O)OCC3 (centres undefined) [ETODOLAC]
Not Active: IC50 (Melanocortin receptor 4) | IC50 [1] | IC50 [2] | Ki [2] | IC50 (Cytochrome P450 2C19) | Ki (Cytochrome P450 2C19) | IC50 [3] | IC50 (Melanocortin receptor 5) | IC50 [4] | IC50 (Interstitial collagenase) | IC50 [5] | IC50 [6] | IC50 [7] | IC50 [8] | Ki [8] | IC50 [9]
